Source: patent publication US8389739B1, “Modulators of retinoid-related orphan receptor gamma” (Orphagen Pharmaceuticals, priority 2006, dated 2013)
pEC50: −log10 of the molar value. Like-named read-outs stand apart in the source and are kept apart here.

Key:
Assay in all cases: Crossreactive receptor transcriptional assay (Gal4 hybrid)
Format in all cases: cell-based
[1] = biological target: T1, hERα (Estrogen receptor-alpha) (Homo sapiens, UniProt P03372)
T1 construct: 249-595; expressed in transfected cells; host or cells: CHO cells, transient transfection
T1 sequence (P03372 249-595): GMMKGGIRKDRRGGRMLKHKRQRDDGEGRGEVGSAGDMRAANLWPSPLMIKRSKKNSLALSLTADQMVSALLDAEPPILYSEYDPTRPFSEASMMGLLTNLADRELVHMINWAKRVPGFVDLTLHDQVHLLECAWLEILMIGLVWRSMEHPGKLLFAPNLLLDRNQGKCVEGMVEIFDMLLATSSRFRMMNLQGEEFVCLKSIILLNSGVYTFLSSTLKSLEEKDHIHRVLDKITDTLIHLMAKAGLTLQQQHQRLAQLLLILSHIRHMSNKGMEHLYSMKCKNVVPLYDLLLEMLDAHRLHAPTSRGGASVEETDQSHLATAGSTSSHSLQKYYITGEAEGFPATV

[2] = biological target: T2, hPPARα (Homo sapiens, UniProt Q07869)
T2 construct: 166-468; expressed in transfected cells; host or cells: CHO cells, transient transfection
T2 sequence (Q07869 166-468): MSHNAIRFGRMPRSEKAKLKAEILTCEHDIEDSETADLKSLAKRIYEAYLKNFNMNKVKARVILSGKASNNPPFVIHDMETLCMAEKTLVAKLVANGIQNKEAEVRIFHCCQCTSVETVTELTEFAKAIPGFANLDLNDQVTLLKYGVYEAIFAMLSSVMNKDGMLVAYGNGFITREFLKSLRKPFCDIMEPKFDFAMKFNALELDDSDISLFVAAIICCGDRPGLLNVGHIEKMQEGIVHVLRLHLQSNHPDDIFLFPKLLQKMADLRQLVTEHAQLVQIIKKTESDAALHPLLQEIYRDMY

[3] = biological target: T3, hPPARδ (Homo sapiens, UniProt Q03181)
T3 construct: 138-441; expressed in transfected cells; host or cells: CHO cells, transient transfection
T3 sequence (Q03181 138-441): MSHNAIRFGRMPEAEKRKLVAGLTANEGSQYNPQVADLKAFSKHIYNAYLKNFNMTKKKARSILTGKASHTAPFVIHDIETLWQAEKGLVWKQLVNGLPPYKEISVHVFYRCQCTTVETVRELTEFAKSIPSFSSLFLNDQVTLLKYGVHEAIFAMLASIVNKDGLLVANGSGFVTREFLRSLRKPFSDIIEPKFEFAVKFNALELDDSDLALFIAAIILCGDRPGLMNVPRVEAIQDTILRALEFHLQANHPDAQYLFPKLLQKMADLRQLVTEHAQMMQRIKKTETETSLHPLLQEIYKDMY

[4] = biological target: T4, hRARα (retinoic acid receptor alpha) (Homo sapiens, UniProt P10276)
T4 construct: 156-462; expressed in transfected cells; host or cells: CHO cells, transient transfection
T4 sequence (P10276 156-462): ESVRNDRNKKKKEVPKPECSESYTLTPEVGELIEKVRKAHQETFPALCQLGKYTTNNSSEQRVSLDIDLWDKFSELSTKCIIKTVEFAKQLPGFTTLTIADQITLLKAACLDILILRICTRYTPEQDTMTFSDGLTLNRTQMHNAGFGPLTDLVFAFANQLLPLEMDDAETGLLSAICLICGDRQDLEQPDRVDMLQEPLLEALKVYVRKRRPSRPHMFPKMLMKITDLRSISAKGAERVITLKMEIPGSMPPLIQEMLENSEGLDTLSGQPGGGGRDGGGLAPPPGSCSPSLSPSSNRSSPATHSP

[5] = biological target: T5, mGR (glucocorticoid receptor) (Mus musculus, UniProt P06537)
T5 construct: 524-793; expressed in transfected cells; host or cells: CHO cells, transient transfection
T5 sequence (P06537 524-793 isoform P06537-2): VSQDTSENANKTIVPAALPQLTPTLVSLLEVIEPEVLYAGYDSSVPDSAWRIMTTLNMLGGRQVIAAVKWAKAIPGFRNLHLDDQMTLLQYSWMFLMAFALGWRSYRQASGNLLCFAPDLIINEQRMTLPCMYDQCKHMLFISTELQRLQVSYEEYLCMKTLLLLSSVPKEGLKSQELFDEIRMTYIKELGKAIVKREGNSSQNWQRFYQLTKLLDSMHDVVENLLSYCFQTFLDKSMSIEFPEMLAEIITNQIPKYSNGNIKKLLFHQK

[6] = Table 6, read-out: Potency (EC50) at hERα
[7] = Table 6, RORγ ligands: no significant activity at 20 μM, read-out: Potency (EC50) at hPPARα
[8] = Table 6, RORγ ligands: no significant activity at 20 μM, read-out: Potency (EC50) at hPPARδ
[9] = Table 6, read-out: Potency (EC50) at hRARα
[10] = Table 6, read-out: Potency (EC50) at mGR

pEC50 [1, 6]	pEC50 [2, 7]	pEC50 [3, 8]	pEC50 [4, 9]	pEC50 [5, 10]	SMILES	pEC50 [1]	pEC50 [2]	pEC50 [3]	pEC50 [4]	pEC50 [5]
< 5.00	< 5.00	< 5.00	< 5.00	< 5.00	CCN(c1ccc(C(O)(C(F)(F)F)C(F)(F)F)cc1)S(=O)(=O)c1ccc([N+](=O)[O-])cc1 [OR-1050, N-Ethyl-4-nitro-N-[4-(2,2,2-trifluoro-1-hydroxy-1-trifluoromethyl-ethyl)-phenyl]-benzenesulfonamide]	–	–	–	–	–
< 5.00	< 5.00	< 5.00	< 5.00	< 5.00	O=S(=O)(c1ccccc1)N(CC(F)(F)F)c1ccc(C(O)(C(F)(F)F)C(F)(F)F)cc1 [Compound T0901317, N-(2,2,2-Trifluoro-ethyl)-N-[4-(2,2,2-trifluoro-1-hydroxy-1-trifluoromethyl-ethyl)-phenyl]-benzenesulfonamide, reference compound]	–	–	–	–	–
–	–	–	–	–	C[C@@H]1CC[C@@]2(OC1)O[C@H]1C[C@H]3[C@@H]4CC[C@H]5C[C@@H](O)CC[C@]5(C)[C@H]4C[C@@H](O)[C@]3(C)[C@H]1[C@@H]2C [OR-885, 5α,20α, 22α, 25D-SPIROSTAN-3β, 12β-DIOL]	< 5.00	< 5.00	< 5.00	< 5.00	< 5.00
< 5.00	< 5.00	< 5.00	< 5.00	< 5.00	CCn1c(CNc2ccc(Cl)cc2)nnc1SCC(=O)Nc1cccc2ccccc12 [OR-133008, 2-{5-[(4-Chloro-phenylamino)-methyl]-4-ethyl-4H-[1,2,4]triazol-3-ylsulfanyl}-N-naphthalen-1-yl-acetamide]	–	–	–	–	–
< 5.00	< 5.00	< 5.00	< 5.00	< 5.00	COc1c(C=NNc2nc(N3CCCCC3)nc(N3CCCCC3)n2)cccc1[N+](=O)[O-] [OR-2161, N-(4,6-Di-piperidin-1-yl-[1,3,5]triazin-2-yl)-N′-(2-methoxy-3-nitro-benzylidene)-hydrazine]	–	–	–	–	–

SMILES	pEC50 [1, 6]	pEC50 [2, 7]	pEC50 [3, 8]	pEC50 [4, 9]	pEC50 [5, 10]	pEC50 [1]	pEC50 [2]	pEC50 [3]	pEC50 [4]	pEC50 [5]
CC(=O)O[C@H]1CC[C@@]2(C)C(CC[C@]3(C)C2C(=O)C=C2C4[C@@H](C)[C@H](C)CC[C@]4(C(=O)O)CC[C@]23C)C1(C)C (stereo in doubt) [OR-13571, 10-Acetoxy-1,2,6a,6b,9,9,12a-heptamethyl-13-oxo-1,3,4,5,6,6a,6b,7,8,8a,9,10,11,12,12a,12b,13,14b-octadecahydro-2H-picene-4a-carboxylic acid]	< 5.00	< 5.00	< 5.00	< 5.00	< 5.00	–	–	–	–	–
COC(C)CCC(C)C1CCC2C3CC(O)C4CC(O)CCC4(C)C3CCC12C (centres unmarked) [OR-12872, 17-(4-Methoxy-1-methyl-pentyl)-10,13-dimethyl-hexadecahydro-cyclopenta[a]phenanthrene-3,6-diol]	< 5.00	< 5.00	< 5.00	< 5.00	< 5.00	–	–	–	–	–
